Values joined by “and” are separate entries in the source; they are usually repeats but may differ in a detail not shown here. Equal values may be shown once. Read-outs that look alike come from different tables or passages of the source.
What was measured:
[1] = log P determination by HPLC on reversed-phase columns (C 18), analogous to OECD Guideline 117; assay type: physicochemical; conditions: for chromatographic logP: reversed-phase HPLC column (C 18); for logP[a]: method [a]; for logP[b]: method [b]
Protocol: The log P values were determined analogously to OECD Guideline 117 (EC Directive 92/69/EEC) by HPLC (high-performance liquid chromatography) using reversed-phase columns (C 18), by the following methods: [a] The LC-MS determination in the acidic range was effected at pH 2.7 with 0.1% aqueous formic acid and acetonitrile (contains 0.1% formic acid) as eluents; linear gradient from 10% acetonitrile to 95% acetonitrile. log P[a] is also referred to as log P(HCOOH). [b] LC-MS determination in the neutral range was effected at pH 7.8 with 0.001 molar aqueous ammonium hydrogencarbonate solution and acetonitrile as eluents; linear gradient from 10% acetonitrile to 95% acetonitrile. log P[b] is also referred to as log P(neutral). Calibration is effected with solutions of a homologous series of unbranched alkan-2-ones (having 3 to 16 carbon atoms) with known log P values (log P values determined on the basis of the retention times by linear interpolation between two successive alkanones).

Tetranychus urticae = Tetranychus urticae - spray test, OP-resistant (bean leaf discs, 6 days); assay type: in vivo; conditions: 500 g/ha, after 6 days
Protocol: 5. Tetranychus urticae—Spray Test, OP-Resistant
Solvent: 78.0 parts by weight of acetone
• 1.5 parts by weight of dimethylformamide Emulsifier: alkylaryl polyglycol ether
To produce a suitable preparation of active compound, 1 part by weight of active compound is dissolved using the stated parts by weight of solvent and made up with water containing an emulsifier concentration of 1000 ppm until the desired concentration is attained. To produce further test concentrations, the preparation is diluted with emulsifier-containing water.
Discs of bean leaves (Phaseolus vulgaris) infested with all stages of the greenhouse red spider mite (Tetranychus urticae) are sprayed with an active compound preparation of the desired concentration.
After 6 days, the efficacy in % is determined. 100% means that all the spider mites have been killed; 0% means that no spider mites have been killed.

Meloidogyne incognita = Meloidogyne incognita - test; assay type: in vivo; conditions: 20 ppm, lettuce, after 14 days
Protocol: 2. Meloidogyne incognita—Test Solvent: 125.0 parts by weight of acetone To produce a suitable preparation of active compound, 1 part by weight of active compound is mixed with the stated amount of solvent and the concentrate is diluted with water to the desired concentration. Vessels are filled with sand, active compound solution, an egg/larvae suspension of the southern root-knot nematode (Meloidogyne incognita) and lettuce seeds. The lettuce seeds germinate and the plants develop. The galls develop on the roots. After 14 days, the nematicidal efficacy in % is determined by the formation of galls. 100% means that no galls were found; 0% means that the number of galls on the treated plants corresponds to the untreated control.

logP[a] [1] | logP[b] [1] | SMILES | efficacy (spider mites killed) (Tetranychus urticae) | other results
– | – | Cc1cc(F)c(N2C(=O)CNC2=O)cc1[S+]([O-])CC(F)(F)F (centres unmarked) [IIb-1] | – | chromatographic logP ([1]; pH 2.7, HPLC, acidic range, pH 2.7, 0.1% aqueous formic acid and acetonitrile, read-out: log P(HCOOH)): 1.33; chromatographic logP ([1]; pH 2.7, Table 3, HPLC, acidic range, pH 2.7, read-out: logP[a]): 1.33; chromatographic logP ([1]; pH 7.8, HPLC, neutral range, pH 7.8, 0.001 molar aqueous ammonium hydrogencarbonate and acetonitrile, read-out: log P(neutral)): 1.31; chromatographic logP ([1]; pH 7.8, Table 3, HPLC, neutral range, pH 7.8, read-out: logP[b]): 1.31; pest or weed control at 500 g/ha (Tetranychus urticae; Tetranychus urticae, foliar, 144 h, read-out: efficacy (spider mites killed)): 100%
3.01 | 2.93 | Cc1cc(F)c(N2C(=O)CN(C(=O)NC(C)C)C2=S)cc1[S+]([O-])CC(F)(F)F (centres unmarked) [compound 14] | 100% | –
3.82 | 3.71 | Cc1cc(F)c(N2C(=O)CN(C(=O)Nc3ccccc3)C2=O)cc1SCC(F)(F)F [compound 16] | 100% | –
3.64 | 3.53 | Cc1cc(F)c(N2C(=O)CN(C(=O)NCc3ccccc3)C2=O)cc1SCC(F)(F)F [compound 18] | 90% | –
2.89 | 2.83 | Cc1cc(F)c(N2C(=O)CN(C(=O)Nc3ccccc3)C2=O)cc1[S+]([O-])CC(F)(F)F (centres unmarked) [compound 19] | 90% | –
3.48 | 3.38 | Cc1cc(C)c(N2C(=O)CN(C(=O)NC(C)C)C2=O)cc1SCC(F)(F)F [compound 22] | 100% | –
3.43 | 3.35 | Cc1cc(F)c(N2C(=O)C(C)N(C(=O)NC3CC3)C2=O)cc1SCC(F)(F)F (centres unmarked) [compound 25] | 100% | –
3.78 | 3.68 | Cc1cc(F)c(N2C(=O)C(C)N(C(=O)NC(C)C)C2=O)cc1SCC(F)(F)F (centres unmarked) [compound 26] | 100% | –
3.14 | 3.04 | CCNC(=O)N1CC(=O)N(c2cc(SCC(F)(F)F)c(C)cc2C)C1=O [compound 31] | 90% | –
2.14 | 2.12 | CCNC(=O)N1CC(=O)N(c2cc([S+]([O-])CC(F)(F)F)c(C)cc2C)C1=O (centres unmarked) [compound 32] | 100% | –
3.86 | 3.89 | Cc1cc(C)c(N2C(=O)CN(C(=O)NC(C)(C)C)C2=O)cc1SCC(F)(F)F [compound 33] | 100% | –
3.80 | 3.69 | Cc1cc(C)c(N2C(=O)CN(C(=O)NCC(C)C)C2=O)cc1SCC(F)(F)F [compound 34] | 100% | –
2.90 | 2.83 | Cc1cc(C)c([S+]([O-])CC(F)(F)F)cc1N1C(=O)CN(C(=O)NC(C)(C)C)C1=O (centres unmarked) [compound 40] | 100% | –
4.23 | 4.16 | Cc1cc(F)c(N2C(=O)CN(C(=O)Nc3cccc(Cl)c3)C2=O)cc1SCC(F)(F)F [compound 45] | 100% | –
1.36 | 2.81 | Cc1cc(C)c(N2C(=O)CN(C(=O)NC3CC3)C2=O)cc1SCC(F)(F)F [compound 49] | 100% | –
3.19 | 3.13 | CCNC(=O)N1CC(=O)N(c2cc(SCC(F)(F)F)c(C)cc2Cl)C1=O [compound 51] | 100% | –
3.93 | 3.78 | Cc1cc(Cl)c(N2C(=O)CN(C(=O)NCC(C)C)C2=O)cc1SCC(F)(F)F [compound 52] | 100% | –
4.43 | 4.35 | Cc1cc(C)c(N2C(=O)CN(C(=O)Nc3cccc(CC(F)(F)F)c3)C2=O)cc1SCC(F)(F)F [compound 55] | 90% | –
3.81 | 3.61 | Cc1cc(Cl)c(N2C(=O)CN(C(=O)NCc3ccccc3)C2=O)cc1SCC(F)(F)F [compound 57] | 100% | –
4.51 | 4.38 | Cc1cc(Cl)c(N2C(=O)CN(C(=O)Nc3cccc(CC(F)(F)F)c3)C2=O)cc1SCC(F)(F)F [compound 58] | 100% | –

logP[a] [1] | logP[b] [1] | SMILES | efficacy (spider mites killed) (Tetranychus urticae) | other results
4.46 | 4.28 | Cc1cc(Cl)c(N2C(=O)CN(C(=O)Nc3cccc(Cl)c3)C2=O)cc1SCC(F)(F)F [compound 59] | 100% and 90% | –
2.24 | 2.17 | Cc1cc(C)c([S+]([O-])CC(F)(F)F)cc1N1C(=O)CN(C(=O)NC2CC2)C1=O (centres unmarked) [compound 60] | 100% | –
2.54 | 2.47 | Cc1cc(C)c([S+]([O-])CC(F)(F)F)cc1N1C(=O)CN(C(=O)NCC(F)(F)F)C1=O (centres unmarked) [compound 61] | 100% | –
2.23 | 2.24 | CCNC(=O)N1CC(=O)N(c2cc([S+]([O-])CC(F)(F)F)c(C)cc2Cl)C1=O (centres unmarked) [compound 64] | 100% | –
2.77 | 2.76 | COCCNC(=O)N1CC(=O)N(c2cc(SCC(F)(F)F)c(C)cc2F)C1=O [compound 66] | 100% | –
4.51 | 4.42 | Cc1cc(F)c(N2C(=O)N(C(=O)NCC(C)C)C(C)(C)C2=O)cc1SCC(F)(F)F [compound 76] | 100% and 90% | –
4.37 | 4.33 | Cc1cc(F)c(N2C(=O)N(C(=O)NCc3ccccc3)C(C)(C)C2=O)cc1SCC(F)(F)F [compound 77] | 100% | –
3.75 | 3.66 | Cc1cc(C)c(N2C(=O)CN(C(=O)NCc3ccccc3)C2=O)cc1SCC(F)(F)F [compound 92] | 90% | –
4.05 | 3.96 | Cc1cc(Cl)c(N2C(=O)CN(C(=O)Nc3ccc(F)cc3)C2=O)cc1SCC(F)(F)F [compound 94] | 100% | –
3.71 | 3.84 | Cc1cc(F)c(N2C(=O)CN(C(=S)NCC(F)(F)F)C2=O)cc1SCC(F)(F)F [compound 102] | 100% | –
3.3 | 3.37 | O=C(NC1CC1)N1CC(=O)N(c2cc(SCC(F)(F)F)c(Cl)cc2Cl)C1=O [compound 104] | 100% | –
3.91 | 3.99 | CC(C)CNC(=O)N1CC(=O)N(c2cc(SCC(F)(F)F)c(Cl)cc2Cl)C1=O [compound 105] | 100% | –
4.49 | 4.56 | O=C(Nc1cccc(Cl)c1)N1CC(=O)N(c2cc(SCC(F)(F)F)c(Cl)cc2Cl)C1=O [compound 109] | 90% | –
4.56 | 4.61 | O=C(Nc1cccc(C(F)(F)F)c1)N1CC(=O)N(c2cc(SCC(F)(F)F)c(Cl)cc2Cl)C1=O [compound 110] | 100% | –
2.5 | 1.51 | Cc1cc(F)c(N2C(=O)CN(C(=O)N3CCN(C)CC3)C2=O)cc1SCC(F)(F)F [compound 123] | 100% | –
1.72 | 1.61 | Cc1cc(F)c(N2C(=O)CN(C(=O)N3CCN(C)CC3)C2=O)cc1[S+]([O-])CC(F)(F)F (centres unmarked) [compound 127] | 100% | –
2.4 | 2.44 | Cc1cc(F)c(N2C(=O)CN(C(=O)N3CCS(=O)(=O)CC3)C2=O)cc1SCC(F)(F)F [compound 128] | – | nematicidal efficacy (formation of galls) (Meloidogyne incognita): 100%
1.75 | 1.78 | Cc1cc(F)c(N2C(=O)CN(C(=O)N(C)C)C2=O)cc1[S+]([O-])CC(F)(F)F (centres unmarked) [compound 133] | 100% | –
1.66 | 1.69 | Cc1cc(F)c(N2C(=O)CN(C(=O)N3CCS(=O)(=O)CC3)C2=O)cc1[S+]([O-])CC(F)(F)F (centres unmarked) [compound 134] | 90% | –

Reference: patent US10206398B2, “Five-membered C-N-attached aryl sulphide and aryl sulphoxide derivatives as pesticides” (BAYER CROPSCIENCE AKTIENGESELLSCHAFT, priority 2014, dated 2019)
